Experimental data as given in patent US6602274B1, “Targeted transcutaneous cancer therapy” (Light Sciences Corporation, priority 1999, dated 2003).

Columns and labels:
[1] = systemic administration, clinical use; cited from earlier work
[2] = system: colon carcinoma tumor mass; test: Photodynamic therapy of a solid tumor with implanted LED light source probes after oral ALA; assay type: in vivo, human
Excerpt: A patient in the terminal phase of recurrent malignant colon cancer presented with a protruding colon carcinoma tumor mass of approximately 500 grams and approximately 13 cm in diameter, which extended through the patient's dermis. Due to the advanced state of the patient's disease and due to the highly vascularized nature of this tumor mass, resection was not feasible. Further, this large tumor mass presented a significant amount of pain and discomfort to the patient, as well as greatly impairing the patient's ability to lie flat.
Six separate light source probes, each including a linear array of LEDs, were surgically implanted in this large human tumor using standard surgical procedures. An intensity of about 25-30 mW of light from each light source probe (650 nm peak wavelength) was delivered to the tumor for 40 hours following oral administration to the patient of a single dose of an (ALA) photosensitizer agent (60 mg/kg). However, after 18 hours, two of the light source probes became unseated from the tumor mass and were disconnected from the electrical power supply used to energize the LEDs on each probe. The total fluence delivered to the tumor bed during this single extended duration treatment was in excess of 20,000 Joules. […] The extent of this PDT induced necrotic effect in a large volume of tumor tissue was totally unexpected and has not been described before in any PDT studies in subjects in vivo or clinically. Over the course of four weeks following PDT, the necrotic tumor tissue was debrided from the patient resulting in a reduction of approximately 500 grams of tumor tissue.
The fluence rate employed in this Example represented about 150-180 mW/cm^2, with a total fluence more than 20,000 Joules. The preferable fluence rate contemplated more broadly by the present invention is between about 5 mW/cm^2 and about 100 mW/cm^2, more preferably, between about 10 mW/cm^2 and about 75 mW/cm^2, and most preferably, between about 15 mW/cm^2 and about 50 mW/cm^2.

virus-infected T cells = virus-infected T cells treated with BPD, exposed to light; Blood Cells 18:129-40 (1992); cited from earlier work

CCOC(=O)C1=Cc2c3nc(cc4nc(cc5[n-]c(cc6[n-]c2c(C)c6CC)c(C)c5CC)C(C)=C4CC)[C@@H](C)[C@]13CC.[Cl-].[Cl-].[Sn] (racemic) [PURLYTIN]
duration of general dermal photosensitivity / sensitization of the skin to light [1]: at least several weeks

NCC(=O)CCC(=O)O [ALA, aminolevulinic acid]
Extensive tumor necrosis, radius around each of the light source probes ([2]; one patient, single oral dose 60 mg/kg, 650 nm light, 40 hours of PDT, total fluence in excess of 20,000 Joules): up to 5 cm
collateral damage to surrounding normal tissue ([2]; one patient, single oral dose 60 mg/kg, after 40 hours of PDT): no collateral damage
reduction of tumor tissue (necrotic tumor tissue debrided) ([2]; over the course of four weeks following PDT, tumor mass of approximately 500 grams): approximately 500 grams

Oc1cccc(-c2c3nc(c(-c4cccc(O)c4)c4ccc([nH]4)c(-c4cccc(O)c4)c4nc(c(-c5cccc(O)c5)c5ccc2[nH]5)CC4)C=C3)c1 [FOSCAN]
duration of general dermal photosensitivity / sensitization of the skin to light [1]: at least several weeks

benzoporphyrin derivatives [BPD]
effect on T cell membrane after exposure to light (virus-infected T cells): holes developed in the T cell membrane and increased in size until the membrane completely decomposed

sodium porfimer [PHOTOPHRIN]
duration of general dermal photosensitivity / sensitization of the skin to light [1]: up to six weeks
